Measured values reported in US5986103A, “2-alkyl-1H-imidazole-5-carboxylic acids” (Hoechst Marion Roussel, priority 1995, dated 1999).

What was measured:
[1] = target: T1, Endothelin A receptor (Rattus norvegicus, UniProt P26684); assay: Affinity for the Endothelin A receptor: displacement of 125I endothelin from rat heart (ventricles) membrane preparation; type: binding; conditions: rat heart (ventricles) membranes, 25° C. for 60 minutes, pH 7.4, read-out: Endothelin A receptor IC50 in nanomoles
T1 construct: A membrane preparation is prepared from the heart (ventricles) of a rat; from tissue; host or cells: rat heart ventricles, membrane preparation
T1 sequence (P26684 21-426): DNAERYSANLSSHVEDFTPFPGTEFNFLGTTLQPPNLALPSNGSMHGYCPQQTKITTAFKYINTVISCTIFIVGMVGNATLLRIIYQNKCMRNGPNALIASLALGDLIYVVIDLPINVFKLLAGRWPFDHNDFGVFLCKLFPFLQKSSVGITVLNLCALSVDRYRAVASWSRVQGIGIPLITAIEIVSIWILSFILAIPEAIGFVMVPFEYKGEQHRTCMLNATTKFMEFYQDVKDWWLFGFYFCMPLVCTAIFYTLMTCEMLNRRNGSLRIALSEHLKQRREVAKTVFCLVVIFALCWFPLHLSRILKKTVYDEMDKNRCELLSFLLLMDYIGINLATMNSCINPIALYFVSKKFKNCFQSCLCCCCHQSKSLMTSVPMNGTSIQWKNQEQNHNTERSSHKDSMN
Description: 1) Study of the Affinity for the Endothelin A Receptor
A membrane preparation is prepared from the heart (ventricles) of a rat. The tissue is ground up in a POLYTRON in a 50 mM Tris buffer pH=7.4.
After 30 minutes at 25° C. (W.B.) the homogenate is centrifuged at 30,000 g for 15 minutes (2 centrifugations with intermediate take-up in the Tris buffer pH. 7.4).
The pellets are suspended in an incubation buffer (25 mM Tris, 5 microg/ml pepstatin A, 3 microg/ml aprotinin, 0.1 mM PMSF, 3 mM EDTA, 1 mM EGTA pH 7.4).
(§1) 2 ml aliquoted fractions are distributed in hemolysis tubes and ^125 I endothelin (approximately 50,000 dpm/tube) and the product to be studied are added. (The product is first tested at 3×10^-5 M three times). When the tested product displaces more than 50% of radioactivity specifically bound to the receptor, it is tested again according to a range of 7 concentrations in order to determine the concentration which inhibits by 50% the radioactivity specifically bound to the receptor. In this way the 50% inhibitory concentration is determined.
(§2) The non-specific bond is determined by the addition of endothelin at 10^-6 M (three times). After incubation at 25° C. for 60 minutes, replacing in a water-bath at 0° C. for 5 minutes, filtration under reduced pressure and rinsing with Tris buffer pH 7.4, the radioactivity is counted in the presence of scintillating Triton. […]

[2] = system: Endothelin; assay: Antagonistic activity of endothelin in a demedullated rat (inhibition of increase in arterial pressure induced by endothelin); type: in vivo, Male Sprague-Dawley rats; conditions: product 10 mg/kg injected (pudendal vein) 10 minutes before endothelin
Description: 3) Test for Antagonistic Activity of Endothelin in a Demedullated Rat
Male Sprague-Dawley rats (250 to 350 g) are anaesthetized (sodium pentobarbital 60 mg/kg injected by intraperitoneal route). The animal is placed under assisted respiration and a bilateral section of the vagus nerves is carried out. The rat is then demedullated.
The average arterial pressure is recorded with a heparin catheter (PE50) introduced into the carotid of the animal and connected via a pressure sensor and an amplifier to a recorder (Gould pressure processor). A catheter is implanted in the pudendal vein in order to allow injection of the molecules to be studied. After a stabilization period (about 15 minutes), the product or the solvent is injected 10 minutes before a range of increasing doses of endothelin which are injected every 2 minutes (0.1-0.3-1-3-10 ug/kg).
The antagonistic activity of the products is estimated by the percentage inhibition of the increase in pressure induced by endothelin at doses of 3 and 10 ug/kg.

[3] = target: T2, Endothelin B receptor (Rattus norvegicus, UniProt P21451); assay: Affinity for the Endothelin B receptor: displacement of 125I endothelin from rat cortex plus cerebellum membrane preparation; type: binding; conditions: rat rear cortex plus cerebellum membranes, 25° C. for 60 minutes, pH 7.4, read-out: Endothelin B receptor IC50 in nanomoles
T2 construct: A membrane preparation is prepared from the rear cortex plus the cerebellum of a rat; from tissue; host or cells: rat rear cortex plus cerebellum, membrane preparation
T2 sequence (P21451 27-442): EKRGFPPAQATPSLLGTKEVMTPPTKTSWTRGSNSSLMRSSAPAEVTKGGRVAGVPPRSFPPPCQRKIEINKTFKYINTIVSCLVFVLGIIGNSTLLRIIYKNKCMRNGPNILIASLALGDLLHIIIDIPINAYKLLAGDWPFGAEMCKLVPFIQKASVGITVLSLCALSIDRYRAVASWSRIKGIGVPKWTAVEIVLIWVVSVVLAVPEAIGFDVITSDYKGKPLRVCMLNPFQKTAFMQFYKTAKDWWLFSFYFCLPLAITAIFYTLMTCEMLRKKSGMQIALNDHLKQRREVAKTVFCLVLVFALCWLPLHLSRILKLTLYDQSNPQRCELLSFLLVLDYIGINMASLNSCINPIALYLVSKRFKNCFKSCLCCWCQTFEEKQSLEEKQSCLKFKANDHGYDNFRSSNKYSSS
Description: 2) Study of the Affinity for the Endothelin B Receptor
A membrane preparation is prepared from the rear cortex plus the cerebellum of a rat. The tissue is ground up in a POLYTRON in a 50 mM Tris buffer pH=7.4.
After 30 minutes at 250C (W.B.) the homogenate is centrifuged at 30,000 g for 15 minutes (2 centrifugations with intermediate take-up in the Tris buffer pH. 7.4).
The pellets are suspended in an incubation buffer (25 mM Tris, 5 microg/ml pepstatin A, 3 microg/ml aprotinin, 0.1 mM PMSF, 3mM EDTA, 1 mM EGTA pH 7.4).
as §1, with “tubes and 125I endothelin (approximately” for “tubes and ^125 I endothelin (approximately”, “50% of the radioactivity specifically” for “50% of radioactivity specifically”
as §2

| IC50 [1] [µM] | IC50 [3] [µM] | Compound | % inhibition of vasoconstriction Et1 3 μg/kg [2] | % inhibition of vasoconstriction Et1 10 μg/kg [2] [%] |
| --- | --- | --- | --- | --- |
| 0.0025 | 0.0784 | CC(C)c1nc(Sc2ccc(CCC(=O)O)cc2)c(C(=O)O)n1Cc1cc2c(cc1Cl)OCO2 [Example 3, 4-((4-(2-carboxyethyl)phenyl)thio)-1-((6-chloro-1,3-benzodioxol-5-yl)methyl)-2-(1-methylethyl)-1H-imidazole-5-carboxylic acid] | +7% | -31 |
| 0.0025 | 0.0885 | CCCc1nc(Sc2ccc(OCC(=O)O)cc2)c(C(=O)O)n1Cc1cc2c(cc1Cl)OCO2 [Example 1, 4-((4-(carboxymethoxy)phenyl)thio)-1-((6-chloro-1,3-benzodioxol5-yl)methyl)2-propyl1H-imidazole5-carboxylic acid] | -52% | -50 |
